Source: patent US10905680B2, “Methods of treatment for cholestatic and fibrotic diseases” (Genfit, priority 2016, dated 2021)

Tests used:
HSC = assay: Toxicity assays in HSC; format: cell-based, human; conditions: data not shown
[1] = tested on: rat primary hepatic stellate cells (rHSC); assay: TGFβ1-induced expression of α-SMA protein in rat HSC (ELISA); format: cell-based; conditions: TGFβ1 3 ng/ml, 48 hours
Method: NTZ (A) or TZ (B) were added to serum-deprived rat HSC (rHSC) 1 hour before the activation with TGFβ1 (3 ng/ml). After 48 hours of incubation, the expression of α-SMA was measured by ELISA. The obtained values were transformed into percentage inhibition over TGFβ1 control. Data are presented as mean (triplicates)±standard deviation (SD). Statistical analyses were performed by one-way ANOVA followed by Bonferroni post-hoc tests, using Sigma Plot 11.0 software. [*: p<0.05; **: p<0.01; ***: p<0.001 (comparison versus TGFβ1 3 ng/mL group)]. The rat primary hepatic stellate cells (rHSC) (Innoprot) were cultured in STeCM medium (ScienCell cat #5301) that was supplemented with 2% fetal bovine serum (FBS, ScienCell cat #0010), 1% penicillin/streptomycin (ScienCell cat #0503) and stellate cell growth supplement (SteCGS; ScienCell cat #5352). For the activation experiments with TGFβ1, the rHSC were plated at a density of 10×10^3 cells per well in 96-well plates. The next day, cell culture medium was removed, and cells were washed with PBS (Invitrogen cat #14190). rHSC were deprived for 24 hours in serum-free and SteCGS-free medium. […] The level of α-SMA was measured using a Sandwich ELISA. […]

[2] = tested on: Normal Human Lung Fibroblasts (NHLF); assay: TGFβ1-induced expression of α-SMA protein in human lung fibroblasts (ELISA); format: cell-based; conditions: concentration of 1 μM; TGFβ1 1 ng/ml, 48 hours
Method: NTZ (A) or TZ (B) was added to serum-deprived lung fibroblasts (NHLF) 1 hour before the activation with TGFβ1 (1 ng/ml). After 48 hours of incubation, the expression of α-SMA was measured by ELISA. The obtained values were transformed into percentage inhibition over TGFβ1 control. Data are presented as mean (triplicates)±standard deviation (SD). Statistical analyses were performed by one-way ANOVA followed by Bonferroni post-hoc tests, using Sigma Plot 11.0 software. [*: p<0.05; **: p<0.01; ***: p<0.001 (comparison versus TGFβ1 1 ng/mL group)].
The Normal Human Lung Fibroblasts (NHLF) (Lonza) were cultured in Fibroblast Basal Medium (FBM) (Lonza cat # CC-3131) that was supplemented with FGM-2 SingleQuots™ Kit (Lonza cat # CC-3132). The complete medium contains 2% fetal bovine serum. For the activation experiments with TGFβ1, the NHLF were plated at a density of 5×10^3 cells per well in 96-well plates. The next day, cell-culture medium was removed, and cells were washed with PBS (Invitrogen cat #14190). NHLF were deprived for 24 hours in serum-free, insulin-free and rhFGF-B-free medium. […]
The level of α-SMA was measured using a Sandwich ELISA. […]

With `O=C(Nc1ncc([N+](=O)[O-])s1)c1ccccc1O` [TZ, 2-hydroxy-N-(5-nitro-2-thiazolyl)benzamide] the “toxicity or apoptosis of HSC” value (HSC) was “not due to toxicity or apoptosis”, the “α-SMA levels in TGFβ-activated HSC derived from rat” value [1] was “reduced” and the “antifibrotic effects (α-SMA) in normal human lung fibroblasts” value [2] was “significant antifibrotic effects”.
